In a melting point compilation (Tetko et al.; mined from patent text by program, amines drawn as free bases though some values may be those of a salt):

melting point	Compound
285 to 290 °C	CCOc1cc2ncc(C#N)c(Nc3ccc(Sc4nccn4C)c(Cl)c3)c2cc1OCC
83 to 84 °C	CN(CCO)c1ccc([N+](=O)[O-])cn1
193 to 195 °C	CC(C)(C)OC(=O)NC1CNc2c(cc(Br)cc2[N+](=O)[O-])C1 (configuration not stated)
127 to 128 °C	O=C(NCc1ccccc1)C1CC=CC(O)C1 (configuration not stated)
101 to 102 °C	CC(C)(C)OC(=O)CCCCCOc1ccc2sc(-c3ccccn3)nc(=O)c2c1
74 to 75 °C	CCCCc1nnc(S(=O)Cc2ccc(OC)cc2)n1Cc1ccc(OC(C(=O)O)c2ccccc2)cc1 (configuration not stated)
237 to 238 °C	Nc1nc2cccnc2c2c1nc(CCCO)n2CC1(O)CCOCC1
50 to 51 °C	CCOC(=O)C(OCc1ccc(-c2ccc(Cl)cc2)cc1)c1ccccc1 (configuration not stated)
145 to 146 °C	CSc1nc2ccc(C(F)(F)F)cc2[nH]1
70 to 74 °C	NCCc1cccc(Cn2ccc(OCc3ccc(F)cc3F)c(Br)c2=O)c1
42 to 44 °C	C#CCCCCCCCCCCCCCO
82 to 84 °C	COc1cccc(Cc2cc3ccc4ccccc4n3n2)c1
168 °C	CCCCC(=O)N[C@H]1CC[C@H](CCN2CCN(c3nccc4c3OCC4)CC2)CC1
148 °C	CCCCCC1OCc2cc(C(=O)O)ccc2O1 (configuration not stated)
280 °C	Cc1ccc(NC(=O)c2ccc(C(=O)Nc3ccccc3N)s2)cc1Nc1nccc(-c2cccnc2)n1
113 to 114 °C	FC(F)(F)c1nc2cnc3ccccc3c2s1
190 °C	CC(=O)Nc1ccccc1C=C1c2ccccc2CCc2ccccc21
95 °C	CC1(C)CCSc2c(CC#Cc3ccc(O)cc3)cccc21
159 to 161 °C	COC(=O)N1Cc2ccccc2C(c2ccccc2Cl)c2ccccc21 (configuration not stated)
58 to 59 °C	OC(CCSc1cccc2ccccc12)CCc1cccnc1 (configuration not stated)
103 to 107 °C	Cn1ccc2cc(NC(=O)Oc3ccccc3)ccc21
121 to 122 °C	COc1ccc(CSc2nnc(-c3ccc4c(c3)CCO4)o2)cc1F
73 to 82 °C	COc1cc(C2CCN(C[C@H](Oc3ncc4ccc(-c5ccccc5OC)n4n3)C(F)(F)F)CC2)ccc1N
168 °C	COC(C)CC(=O)NC1CCC(CCN2CCN(c3nccc4c3OCC4)CC2)CC1 (racemic)
77 to 78 °C	CCCC(=O)Cc1cc(OC)ccc1NC(=O)OC(C)(C)C

melting point	Compound
168 to 169 °C	CC#COc1cccc2oc3ccccc3c(=O)c12
282 to 284 °C	Sc1nc2cnc3ccccc3c2s1
226 to 228 °C	CNC(=O)c1cc2c(Oc3ccc(C(=O)NCCN4CCOCC4)cc3)cncc2s1
222 to 223 °C	Oc1ccc(-c2ncc3ncc(-c4ccc(S)cc4)cc3n2)cc1
75 to 78 °C	CC(C)c1ccc(S(=O)(=O)Nc2ccc(N3CCC(NCC(O)COc4ccc(O)cc4)CC3)nc2)cc1 (configuration not stated)
245 to 250 °C	Cn1nc(-c2cccc(-n3ncc4cc(C(C)(C)C)cc(F)c4c3=O)c2CO)cc(Nc2ccn(C[C@@H](O)CO)n2)c1=O
> 300 °C	Nc1nc2c(ncn2[C@H]2C=C[C@@H](O)CC2)c(=O)[nH]1 (racemic)
> 250 °C	O=C(Nc1ccccc1O)C(=O)Nc1ccccc1O
294 to 298 °C	O=c1nc(-c2ccc(F)cc2)c2ccccc2[nH]1
135 °C	CCCCn1c(=O)cn[nH]c1=O
228 to 229 °C	Nc1nc(=O)n(-c2ccsc2)cc1F
119 to 126 °C	Cc1ccc(S(=O)(=O)NC2(S(=O)(=O)n3ccc(/C=C/C(=O)NO)c3)C=CC(c3ccccc3)=CC2)cc1 (configuration not stated)
157 to 158 °C	CN(CC(=O)O)C(=O)CCS
228 to 230 °C	O=C(NC1CCCCC1)NS(=O)(=O)c1ccc(CCn2cnc3ccccc3c2=O)cc1
77 to 78 °C	CCCCCCCCCCN(O)C(=O)NCCC(=O)OC
113 to 115 °C	COc1cc(OC)c(-c2cccn2C)cc1C=CC(=O)c1ccc(S(=O)(=O)Nc2cc(C)on2)cc1
91 to 94 °C	O=CNc1ccc(SC(CCc2ccc(Cl)cc2)Cn2ccnc2)cc1 (configuration not stated)
175 to 179 °C	CC(=O)OC1CCC2(C)C(CCC3C4CCC(C(C)=O)C4(C)CC(O)C32Cl)C1 (configuration not stated)
146 to 148 °C	CC(=O)C=Cc1ccc2c(c1)Cc1ccccc1-2
> 300 °C	CC(=Cc1cnc2nc(N)nc(N)c2c1)c1ccc(C(=O)OC(C)(C)C)cc1
148 to 150 °C	Cc1c(-c2c[nH]c3c(-c4ccccc4)cccc23)nc2ccc(F)cc2c1C(=O)O
96 to 98 °C	COc1cccc(P(=O)(c2ccc(C)cc2)c2ccc(C)cc2)c1
176 °C	ON=C(c1ccccc1)c1cccc2nc(N[C@@H]3CCc4ccccc43)ccc12
184 to 186 °C	N#Cc1cc(N2CCC(c3cc(Cl)cc(Cl)c3)(C(F)(F)F)C2)ccc1F (configuration not stated)
117 to 119 °C	CC1(Cc2cc3[nH]c(=O)oc3cc2Br)OCCO1

melting point	Compound
100 to 101 °C	COc1ccc(CCOc2ccc(NC(=O)N(C)OC)cc2)cc1
64 to 65 °C	C=C(C)CC(O)C(Br)(Br)Br (configuration not stated)
156 °C	CC(C)C1(C)N=C(c2ncc(C3OCCO3)cc2C(=O)O)NC1=O (configuration not stated)
138 to 141 °C	Nc1cc(=O)n(CC2CCCCC2)c(=O)n1CC1CCCCC1
170 to 173 °C	COc1ccc(C(=O)Nc2ccc(CN3C(=O)[C@H]4CCC[C@H]4N(C(=O)CN4C(=O)c5ccccc5C4=O)c4ccccc43)cc2)cc1 (relative stereo)
129 to 131 °C	CCS(=O)c1cccnc1S(=O)(=O)NC(C)(C)C (configuration not stated)
164 to 165 °C	CC(Nc1nc(Cl)nc2c1cnn2-c1ccccc1)C(O)c1ccccc1 (configuration not stated)
99 to 101 °C	CC(C)c1nc(CN)n(C)c1Sc1cccc(Cl)c1
262 to 264 °C	CON=Cc1nc2c(N)nc3cc(Br)ccc3c2s1
37 to 38 °C	Brc1ccc(OCc2ccccc2)cc1OCc1ccccc1
103 to 104 °C	CCOC(=O)C(=O)Nc1cc(Cl)ccc1[N+](=O)[O-]
162 to 163 °C	NS(=O)(=O)c1ccc(-c2cc(F)c(F)cc2-c2ccc(F)c(Cl)c2)cc1
> 300 °C	CC(=O)Nc1nc2c(s1)-c1c(c(-c3c[nH]cn3)nn1-c1ccccc1C(F)(F)F)CC2
88 °C	CCOC(=O)CCCn1c(=O)[nH]c2ccccc21
142 to 144 °C	CN(C)CCC=Cc1ccc2c(c1)CCCN2C(=O)c1ccc(-c2ccc(Cl)cc2)cc1
230 to 231 °C	COCc1nc2c(OC)ccc(C(=O)Nc3c(Cl)cncc3Cl)c2[nH]1
130 to 131 °C	CCOC(=O)C(C(=O)OC(c1ccccc1)c1ccccc1)C(=O)c1cc(F)c(OC)nc1Nc1ccc(F)cc1F (configuration not stated)
191 to 192 °C	COc1ncc(C(=O)O)cc1OC1CCCC1
215 to 217 °C	COc1ccc(Cc2ccc3nc(N)nc(N)c3c2)cc1OC
176 to 177 °C	O=C(NO)C1(NS(=O)(=O)c2ccc(Oc3ccc(F)cc3)cc2)CCOCC1
133 to 134 °C	CC(=O)Nc1ccc(S(=O)(=O)NCC2CCN(C[C@H]3COc4ccc5[nH]ccc5c4O3)CC2)cc1
285 to 287 °C	Cc1cc(C)c2c(=O)cc(C(=O)O)[nH]c2c1
159 °C	O=C(O)c1ccccc1Oc1ccc(Cl)cn1
116 to 117 °C	Cn1nc(-c2c(F)cccc2Cl)nc1-c1ccc(Oc2ccc(C(F)(F)F)cn2)c(Cl)c1
51 °C	CCCCCCc1ccc(-c2ccc(OC(=O)C3(C#N)CCCC(C)C3)cc2)cc1 (configuration not stated)

melting point	Compound
168 to 169 °C	c1ccc(-c2ccc3sc(-c4nc(COc5ccc(CCCn6ccnc6)cc5)co4)cc3c2)cc1
164 to 165 °C	CC(C)c1cc(C(C)C)c2nc[nH]c(=O)c2c1
198 to 200 °C	O=C1C2C3COC2(C3)c2cccnc2N1c1ccccc1 (configuration not stated)
129 to 131 °C	C#Cc1cccc(C2=CC(=O)NC2=O)c1
86 to 87 °C	CCOc1nc2c(cnn2CC)nc1C(=O)Cl
208 to 210 °C	O=C(c1ccccc1)N1CCCc2ncc3ccccc3c21
84 to 86 °C	COc1ccc2c(c1)C(=NOCCN(C)C)c1c-2c(N2CCNCC2)nc2ccccc12
221 to 222 °C	CCn1c(=O)c2c(nc(/C=C/c3cccc(C(C)=O)c3)n2C)n(CC)c1=O
108 to 120 °C	COC1(OC)CCCCC1N=O (configuration not stated)
103 to 104 °C	COC(=O)c1ccc([C@H]2CCN(Cc3ccccc3)C[C@@H]2O)cc1 (racemic)
> 310 °C	O=c1[nH]c2c(c3nc(-c4ccccc4F)cn13)CNCC2
167 °C	CCCCc1nc2cc[nH]c(=O)c2n1Cc1ccc(-c2ccccc2-c2nnn[nH]2)cc1
136 to 138 °C	c1ccc(Cn2nc(-c3ccncc3)nc2-c2ccncc2)cc1
> 245 °C	CN1CCN(Cc2ccc(-c3cc4c(Nc5cccc6[nH]ccc56)c(C#N)cnc4s3)cc2)CC1
63 to 67 °C	CC(=Cc1ccccc1)c1ccc2c(c1)C(C)(C)C(O)C2(C)C (configuration not stated)
59 to 60 °C	CCCc1ccc(C(O)(c2c(C)cc(C)c(C)c2OC)C(C)C)cc1 (configuration not stated)
138 to 139 °C	CCc1ncnc(N[C@H]2CS[C@@H](c3ccc(C)cc3)SC2)c1Cl
110 to 112 °C	CON=C1C(C)(C)c2cc3nc(SCc4ncc(C)c(OC)c4C)[nH]c3cc2C1(C)C
133 to 134 °C	COc1ccc2c(c1)C1(CC#N)CCC(=O)C=C1CC2 (configuration not stated)
56 to 58 °C	O=C(O)CON=CCBr
130 °C	CC(O)CC1NCc2ccsc2-n2cccc21 (configuration not stated)
105 °C	O=C(O)CSCCSc1ccc(O)cc1

Compound	melting point
CC1(C)CCC(C)(C)c2cc(-c3cc([N+](=O)[O-])ccc3OS(=O)(=O)C(F)(F)F)ccc21	87 to 89 °C
Nc1cccc2c1C(=O)N1CCC[C@H]1c1c(C(=O)OC3CCCCC3)ncn1-2	211 to 212 °C
CCOC(=O)c1nc2n(n1)-c1ccc([N+](=O)[O-])cc1C(c1ccccc1F)=NC2	165 to 167 °C
c1ccc(-c2cnc(NC3=NCC4(CN5CCC4CC5)O3)s2)cc1 (configuration not stated)	187 to 189 °C
O=c1c2ccccc2nc(CCl)n1-c1cccc(Cl)c1	202 to 205 °C
